Measured values reported in PMC13052863 (PLOS One, 2026).
Where two headings read alike, the source gives them in different places.

How the values were obtained:
D. melanogaster eIF4A wt = biological target: T1, D. melanogaster eIF4A wt (Drosophila melanogaster, UniProt Q02748); type: binding; conditions: S3 Table
T1 construct: made in house; host or cells: E. coli BL21 (DE3)

S2 cells = assay: cells; conditions: Drosophila melanogaster, read-out: IC50 (best-fit value, 4PL dose-viability curve)
[1] = biological target: T2, D. melanogaster eIF4A mutant Y160L (Drosophila melanogaster, UniProt Q02748, Y160L); type: binding; conditions: S3 Table, D. melanogaster mut.
T2 construct: made in house; host or cells: E. coli BL21 (DE3)
T2 sequence (Q02748 whole entry Y160L): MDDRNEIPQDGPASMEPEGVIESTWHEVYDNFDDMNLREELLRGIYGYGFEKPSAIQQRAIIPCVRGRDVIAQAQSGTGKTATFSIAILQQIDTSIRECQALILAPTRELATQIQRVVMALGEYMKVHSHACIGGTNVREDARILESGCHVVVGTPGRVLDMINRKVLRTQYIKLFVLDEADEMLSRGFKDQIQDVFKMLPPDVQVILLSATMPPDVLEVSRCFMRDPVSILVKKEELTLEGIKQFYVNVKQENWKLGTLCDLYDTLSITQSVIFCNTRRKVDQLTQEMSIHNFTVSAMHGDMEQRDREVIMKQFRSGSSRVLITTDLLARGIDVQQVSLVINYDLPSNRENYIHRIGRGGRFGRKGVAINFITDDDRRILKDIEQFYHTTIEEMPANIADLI

[2] = system: Ae. aegypti eIF4A mutant H161L; conditions: for reduction in thermal shift with the mutant compared to the wt protein: Ae. aegypti eIF4A, (GA)5 10mer; for ∆Tm: S3 Table, Ae. aegypti mut.
[3] = system: eIF4A-dependent firefly luciferase translation in Aag2 cells; type: cell-based, Ae. aegypti; conditions: t = 48 h
in vitro [4] = conditions: Drosophila melanogaster, CC50, S2 cells, WST-1
A549 cells = conditions: 50–100 nM, WST-1
in vitro [5] = conditions: Aedes aegypti, CC50, Aag2 cells, WST-1
RVFV Clone 13 = type: cell-based, Rift Valley fever virus; conditions: A549 cells pretreated with 50 nM silvestrol, MOI 0.1, 18 h post-infection, relative to DMSO controls
[6] = system: eIF4A-dependent firefly luciferase translation in S2 cells; type: cell-based, D. melanogaster; conditions: t = 24 h
RVFV MP-12 = type: cell-based, Rift Valley fever virus; conditions: A549 cells pretreated with 50 nM silvestrol, MOI 0.1, 18 h post-infection, relative to DMSO controls
[7] = system: A. suspensa eIF4A mutant Y160L; conditions: S3 Table, A. suspensa mut.
Aag2 cells = assay: cells; conditions: Aedes aegypti, read-out: IC50 (best-fit value, 4PL dose-viability curve)
[8] = silvestrol in the sub-CC50 range, vs DMSO and (AC)15 control

T1 sequence (Q02748 whole entry): as the sequence (Q02748 whole entry Y160L) above, with L160Y counted along it

Row | Structure (SMILES) | ∆Tm (D. melanogaster eIF4A wt; RNA oligo (AC)5) [°C] | ∆Tm (D. melanogaster eIF4A wt; RNA oligo (AG)5) [°C] | ∆Tm (D. melanogaster eIF4A wt; RNA oligo (GA)5) [°C] | ∆Tm (D. melanogaster eIF4A wt; RNA oligo (UA)5) [°C] | ∆Tm (D. melanogaster eIF4A wt; RNA oligo (UC)5) [°C] | ∆Tm (D. melanogaster eIF4A wt; RNA oligo (UG)5) [°C] | ∆Tm ([1]; RNA oligo (AC)5) [°C] | ∆Tm ([1]; RNA oligo (AG)5) [°C] | ∆Tm ([1]; RNA oligo (GA)5) [°C] | ∆Tm ([1]; RNA oligo (UC)5) [°C] | ∆Tm ([1]; RNA oligo (UG)5) [°C] | reduction in thermal shift with the mutant compared to the wt protein [2] | ∆Tm ([2]; RNA oligo (AC)5) [°C] | ∆Tm ([2]; RNA oligo (AG)5) [°C] | ∆Tm ([2]; RNA oligo (GA)5) [°C] | ∆Tm ([2]; RNA oligo (UA)5) [°C] | ∆Tm ([2]; RNA oligo (UC)5) [°C] | ∆Tm ([2]; RNA oligo (UG)5) [°C] | ∆Tm ([7]; RNA oligo (AC)5) [°C] | ∆Tm ([7]; RNA oligo (GA)5) [°C] | further results
1 | COC(=O)[C@H]1[C@@H](O)[C@@]2(O)c3c(OC)cc(O[C@@H]4O[C@@H]([C@H](O)CO)CO[C@H]4OC)cc3O[C@@]2(c2ccc(OC)cc2)[C@@H]1c1ccccc1 [silvestrol] | 1.02 | 9.55 | 9.16 | -0.09 | -0.09 | 7.31 | -1.65 | 1.76 | 2.90 | -3.87 | -2.05 | about 5 °C | -5.7 | 7.84 | 3.91 | -5.16 | -5.73 | -0.68 | -4.10 | 3.53 | IC50 (S2 cells; 24 h): 6.35 nM; IC50 (S2 cells; 48 h): 6.15 nM; translation efficiency with the (AC)15 control [3]: already visible at the half CC50 concentration; firefly luciferase activity / translation efficiency with the (AG)15 plasmid [3, 8]: strong reduction; CC50 (in vitro [4]; 24 h incubation): 11.5 nM; CC50 (in vitro [4]; 48 h incubation): 7.3 nM; cytotoxicity (A549 cells): No cytotoxicity; CC50 (in vitro [5]; 24 h incubation): 55.6 nM; CC50 (in vitro [5]; 48 h incubation): 49 nM; RVFV L-segment RNA levels (RVFV Clone 13): strong reduction; translation efficiency with the (AC)15 control ([6]; silvestrol concentrations in the CC50 range): reduction of translation efficiency; firefly luciferase activity / translation efficiency with the (AG)15 plasmid [6, 8]: strong reduction; RVFV L-segment RNA levels (RVFV MP-12): strong reduction; ∆Tm ([7]; RNA oligo (UA)5): -4.50 °C; ∆Tm ([7]; RNA oligo (UC)5): -4.15 °C; ∆Tm ([7]; RNA oligo (UG)5): -3.02 °C; IC50 (Aag2 cells; 24 h): 36.7 nM; IC50 (Aag2 cells; 48 h): 45.3 nM
2 | CONC(=O)C1C(O)C2(O)c3c(OC)cc(OC)cc3OC2(c2ccc(OC)cc2)C1c1ccccc1 (stereo not drawn) [CR-31-B (-)] | -0.43 | 6.55 | 5.81 | -0.71 | -1.11 | 5.59 | -4.66 | 0.74 | 1.88 | -4.09 | -2.27 | ~3 °C | -4.82 | 7.50 | 3.74 | -4.65 | -5.44 | -0.09 | -4.03 | 2.81 | ∆Tm ([1]; RNA oligo (UA)5): -4.43 °C; ∆Tm ([7]; RNA oligo (UA)5): -4.53 °C; ∆Tm ([7]; RNA oligo (UC)5): -4.59 °C; ∆Tm ([7]; RNA oligo (UG)5): -2.82 °C
